Laboratory results as given in patent publication US20230167073A1 (Teijin Pharma Limited, priority 2020, published 2023).

target: T1, Human TRPC6 (Homo sapiens, UniProt Q9Y210); assay: Evaluation of TRPC6 channel inhibitory activity (1), FLIPR Calcium 5 Assay Kit, OAG stimulation (Compound Nos. 1-1293); format: cell-based; settings: Human TRPC6 stably-expressing cells, OAG 30 μM, FLIPR Calcium 5 Assay Kit; read-out: Inhibitory activity (pIC50 class) (converted)
T1 construct: expressed in transfected cells
T1 sequence (Q9Y210 1-931): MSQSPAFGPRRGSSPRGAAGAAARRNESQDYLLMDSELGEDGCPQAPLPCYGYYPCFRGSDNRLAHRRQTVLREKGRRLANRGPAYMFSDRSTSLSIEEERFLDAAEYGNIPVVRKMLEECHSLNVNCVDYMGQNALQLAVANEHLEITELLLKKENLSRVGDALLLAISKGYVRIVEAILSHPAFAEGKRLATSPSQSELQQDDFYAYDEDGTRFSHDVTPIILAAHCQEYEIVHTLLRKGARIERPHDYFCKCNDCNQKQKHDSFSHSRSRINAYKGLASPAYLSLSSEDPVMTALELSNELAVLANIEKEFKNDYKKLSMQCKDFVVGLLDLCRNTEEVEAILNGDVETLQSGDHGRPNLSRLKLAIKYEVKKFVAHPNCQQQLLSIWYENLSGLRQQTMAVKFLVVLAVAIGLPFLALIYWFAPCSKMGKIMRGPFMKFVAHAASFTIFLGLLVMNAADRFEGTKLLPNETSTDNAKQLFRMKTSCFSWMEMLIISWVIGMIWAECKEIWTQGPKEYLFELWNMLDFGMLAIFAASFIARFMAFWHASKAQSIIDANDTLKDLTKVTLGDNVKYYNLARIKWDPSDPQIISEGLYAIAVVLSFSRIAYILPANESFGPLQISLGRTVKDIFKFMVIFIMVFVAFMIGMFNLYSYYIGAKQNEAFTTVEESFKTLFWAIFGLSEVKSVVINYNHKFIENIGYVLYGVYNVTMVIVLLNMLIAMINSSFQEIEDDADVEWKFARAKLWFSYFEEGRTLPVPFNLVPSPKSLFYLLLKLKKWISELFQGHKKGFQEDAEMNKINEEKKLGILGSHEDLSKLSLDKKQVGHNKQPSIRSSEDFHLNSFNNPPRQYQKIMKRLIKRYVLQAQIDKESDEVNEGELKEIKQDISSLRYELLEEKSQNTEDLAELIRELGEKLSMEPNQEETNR
Summary of the method: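 Readout is pIC50 from four-parameter logistic fitting of inhibition of the OAG-evoked (30 μM final) fluorescence calcium signal. Human TRPC6 stable cells are dye-loaded with probenecid, and compound is applied 20 min ahead of agonist.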

Structure (SMILES) | IC50 [nM]
Cc1ncsc1-c1cc(Oc2cc(C#N)ccc2-c2ncc(CN)cn2)n(C)n1 [compound 958, 4-[5-(aminomethyl)pyrimidin-2-yl]-3-[2-methyl-5-(4-methyl-1,3-thiazol-5-y)pyrazol-3-yl]oxybenzonitrile] | < 10
Cc1cnc(-c2cc(Oc3cc(C#N)ccc3-c3ncc(CN)cn3)n(C)n2)s1 [compound 960, 4-[5-(aminomethyl)pyrimidin-2-yl]-3-[2-methyl-5-(5-methyl-1,3-thiazol-2-yl)pyrazol-3-yl]oxybenzonitrile] | 10 to 1000
Cc1ncc(-c2cc(Oc3cc(C#N)ccc3-c3ncc(CN)cn3)n(C)n2)s1 [compound 962, 4-[5-(aminomethyl)pyrimidin-2-yl]-3-[2-methyl-5-(2-methyl-1,3-thiazol-5-yl)pyrazol-3-yl]oxybenzonitrile] | 10 to 1000
Cc1nn(CC(F)(F)F)cc1Oc1cc(F)ccc1-c1ncc(CCN)cn1 [compound 968, 2-[2-[4-fluoro-2-[3-methyl-1-(2,2,2-trifluoroethyl)pyrazol-4-yl]oxyphenyl]pyrimidin-5-yl]ethanamine] | < 10
Cc1nn(-c2ccccn2)cc1Oc1cc(F)ccc1-c1ncc(CCN)cn1 [compound 969, 2-[2-[4-fluoro-2-(3-methyl-1-pyridin-2-ylpyrazol-4-yl)oxyphenyl]pyrimidin-5-yl]ethanamine] | < 10
CCN(CC)c1cc(Oc2cc(F)ccc2-c2ncc(CCN)cn2)n(C)n1 [compound 972, 5-[2-[5-(2-aminoethyl)pyrimidin-2-yl]-5-fluorophenoxy]-N,N-diethyl-1-methylpyrazole-3-amine] | < 10
Cn1nc(N2CCOCC2)cc1Oc1cc(F)ccc1-c1ncc(CCN)cn1 [compound 973, 2-[2-[4-fluoro-2-(2-methyl-5-morpholin-4-ylpyrazol-3-yl)oxyphenyl]pyrimidin-5-yl]ethanamine] | 10 to 1000
Cn1nc(-c2ccccn2)cc1Oc1cc(F)ccc1-c1ncc(CCN)cn1 [compound 977, 2-[2-[4-fluoro-2-(2-methyl-5-pyridin-2-ylpyrazol-3-yl)oxyphenyl]pyrimidin-5-yl]ethanamine] | < 10
Cc1cc(Oc2cc(F)ccc2-c2ncc(CCN)cn2)cc(N2CCOCC2)n1 [compound 978, 2-[2-[4-fluoro-2-(2-methyl-6-morpholin-4-ylpyridin-4-yl)oxyphenyl]pyrimidin-5-yl]ethanamine] | < 10
Cn1nc(N2CCCC2)cc1Oc1cc(F)ccc1-c1ccc(CCN)cn1 [compound 980, 2-[6-[4-fluoro-2-(2-methyl-5-pyrrolidin-1-ylpyrazol-3-yl)oxyphenyl]pyridin-3-yl]ethanamine] | < 10
Cc1nn(C(C)C)cc1Oc1cc(F)ccc1-c1ncc(CCN)cn1 [compound 983, 2-[2-[4-fluoro-2-(3-methyl-1-propan-2-ylpyrazol-4-yl)oxyphenyl]pyrimidin-5-yl]ethanamine] | < 10
Cc1c(Oc2cc(F)ccc2-c2ncc(CCN)cn2)cnn1C(C)C [compound 984, 2-[2-[4-fluoro-2-(5-methyl-1-propan-2-ylpyrazol-4-yl)oxyphenyl]pyrimidin-5-yl]ethanamine] | 10 to 1000
Cc1nn(CC(C)(C)C)cc1Oc1cc(F)ccc1-c1ncc(CCN)cn1 [compound 985, 2-[2-[2-[1-(2,2-dimethylpropyl)-3-methylpyrazol-4-yl]oxy-4-fluorophenyl]pyrimidin-5-yl]ethanamine] | < 10
Cc1c(Oc2cc(F)ccc2-c2ncc(CCN)cn2)cnn1CC(C)(C)C [compound 986, 2-[2-[2-[1-(2,2-dimethylpropyl)-5-methylpyrazol-4-yl]oxy-4-fluorophenyl]pyrimidin-5-yl]ethanamine] | 10 to 1000
CN(CC(F)F)c1cc(Oc2cc(F)ccc2-c2ncc(CCN)cn2)n(C)n1 [compound 987, 5-[2-[5-(2-aminoethyl)pyrimidin-2-yl]-5-fluorophenoxy]-N-(2,2-difluoroethyl)-N,1-dimethylpyrazole-3-amine] | < 10
CCN(CC(F)F)c1cc(Oc2cc(F)ccc2-c2ncc(CCN)cn2)n(C)n1 [compound 989, 5-[2-[5-(2-aminoethyl)pyrimidin-2-yl]-5-fluorophenoxy]-N-(2,2-difluoroethyl)-N-ethyl-1-methylpyrazole-3-amine] | < 10

More lines, now with the values ahead:

IC50 [nM] | Structure (SMILES)
10 to 1000 | Cc1csc(-c2cc(Oc3cc(C#N)ccc3-c3ncc(CN)cn3)n(C)n2)n1 [compound 959, 4-[5-(aminomethyl)pyrimidin-2-yl]-3-[2-methyl-5-(4-methyl-1,3-thiazol-2-yl)pyrazol-3-yl]oxybenzonitrile]
> 1000 | Cc1nnc(-c2cc(Oc3cc(C#N)ccc3-c3ncc(CN)cn3)n(C)n2)s1 [compound 961, 4-[5-(aminomethyl)pyrimidin-2-yl]-3-[2-methyl-5-(5-methyl-1,3,4-thiadiazol-2-yl)pyrazol-3-yl]oxybenzonitrile]
< 10 | Cc1scnc1-c1cc(Oc2cc(C#N)ccc2-c2ncc(CN)cn2)n(C)n1 [compound 963, 4-[5-(aminomethyl)pyrimidin-2-yl]-3-[2-methyl-5-(5-methyl-1,3-thiazol-4-yl)pyrazol-3-yl]oxybenzonitrile]
10 to 1000 | Cn1nc(C#N)cc1Oc1cc(C#N)ccc1-c1ccc(CCN)cn1 [compound 964, 5-[2-[5-(2-aminoethyl)pyridin-2-yl]-5-cyanophenoxy]-1-methylpyrazole-3-carbonitrile]
10 to 1000 | Cc1nc(Oc2cc(F)ccc2-c2ncc(CCN)cn2)cc(N2CCOCC2)n1 [compound 965, 2-[2-[4-fluoro-2-(2-methyl-6-morpholin-4-ylpyrimidin-4-yl)oxyphenyl]pyrimidin-5-yl]ethanamine]
> 1000 | Cc1c(Oc2cc(F)ccc2-c2ncc(CCN)cn2)cnn1CC(F)(F)F [compound 970, 2-[2-[4-fluoro-2-[5-methyl-1-(2,2,2-trifluoroethyl)pyrazol-4-yl]oxyphenyl]pyrimidin-5-yl]ethanamine]
> 1000 | Cc1c(Oc2cc(F)ccc2-c2ncc(CCN)cn2)cnn1-c1ccccn1 [compound 971, 2-[2-[4-fluoro-2-(5-methyl-1-pyridin-2-ylpyrazol-4-yl)oxyphenyl]pyrimidin-5-yl]ethanamine]
10 to 1000 | Cn1nc(N2CCOCC2)cc1Oc1cc(F)ccc1-c1ncc(CN)cn1 [compound 974, [2-[4-fluoro-2-(2-methyl-5-morpholin-4-ylpyrazol-3-yl)oxyphenyl]pyrimidin-5-yl]methanamine]
< 10 | Cn1nc(N2CCOCC2)cc1Oc1cc(F)ccc1-c1ccc(CCN)cn1 [compound 975, 2-[6-[4-fluoro-2-(2-methyl-5-morpholin-4-ylpyrazol-3-yl)oxyphenyl]pyridin-3-yl]ethanamine]
10 to 1000 | Cn1nc(N2CCOCC2)cc1Oc1cc(F)ccc1-c1ccc(CN)cn1 [compound 976, [6-[4-fluoro-2-(2-methyl-5-morpholin-4-ylpyrazo1-3-yl)oxyphenyl]pyridin-3-yl]methanamine]
< 10 | Cn1nc(N2CCCC2)cc1Oc1cc(F)ccc1-c1ncc(CCN)cn1 [compound 979, 2-[2-[4-fluoro-2-(2-methyl-5-pyrrolidin-1-ylpyrazol-3-yl)oxyphenyl]pyrimidin-5-yl]ethanamine]
10 to 1000 | CC(C)n1cc(Oc2cc(F)ccc2-c2ncc(CCN)cn2)cn1 [compound 981, 2-[2-[4-fluoro-2-(1-propan-2-ylpyrazol-4-yl)oxyphenyl]pyrimidin-5-yl]ethanamine]
10 to 1000 | CC(C)Cn1cc(Oc2cc(F)ccc2-c2ncc(CCN)cn2)cn1 [compound 982, 2-[2-[4-fluoro-2-[1-(2-methylpropyl)pyrazol-4-yl]oxyphenyl]pyrimidin-5-yl]ethanamine]
< 10 | CN(CC(F)F)c1cc(Oc2cc(F)ccc2-c2ccc(CCN)cn2)n(C)n1 [compound 988, 5-[2-[5-(2-aminoethyl)pyridin-2-yl]-5-fluorophenoxy]-N-(2,2-difluoroethyl)-N,1-dimethylpyrazole-3-amine]
< 10 | CCN(CC(F)F)c1cc(Oc2cc(F)ccc2-c2ccc(CCN)cn2)n(C)n1 [compound 990, 5-[2-[5-(2-aminoethyl)pyridin-2-yl]-5-fluorophenoxy]-N-(2,2-difluoroethyl)-N-ethyl-1-methylpyrazole-3-amine]
< 10 | CCN(CC)c1cc(Oc2cc(F)ccc2-c2ccc(CCN)cn2)n(C)n1 [compound 991, 5-[2-[5-(2-aminoethyl)pyridin-2-yl]-5-fluorophenoxy]-N,N-diethyl-1-methylpyrazole-3-amine]
